From PubChem BioAssay AID1963444 (Molecular Pharmacology Branch, DTP, NCI, 2024)

Test system: HSSY-II complex spheroid growth, percent test/control
Assay: Anticancer human tumor HSSY-II cell line growth inhibition [Asc];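 also: spheroids exposed to drug for 7 days before reading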
Details: for IC50: curve of first compound; for viability, T/C: stronger effect = lower value
In short: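 Spheroid model: tumor line + HUVEC + hMSC. Single agents and combinations; top conc. at/near clinical Cmax (10 microM if undetermined), half-log dilutions. DMSO stocks at 800-fold test concentration.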

[1] = second compound 0.1 µM, first compound 0.0316 µM
[2] = second compound 0.1 µM, first compound 0.1 µM
[3] = second compound 0.1 µM, first compound 0.316 µM
[4] = second compound 0.1 µM, first compound 1 µM
[5] = second compound 0.316 µM, first compound 0.0316 µM
[6] = second compound 0.316 µM, first compound 0.1 µM
[7] = second compound 0.316 µM, first compound 0.316 µM
[8] = second compound 0.316 µM, first compound 1 µM
[9] = second compound 1 µM, first compound 0.0316 µM
[10] = second compound 1 µM, first compound 0.1 µM
[11] = second compound 1 µM, first compound 0.316 µM
[12] = second compound 1 µM, first compound 1 µM
[13] = second compound 3.16 µM, first compound 0.0316 µM
[14] = second compound 3.16 µM, first compound 0.1 µM
[15] = second compound 3.16 µM, first compound 0.316 µM
[16] = second compound 3.16 µM, first compound 1 µM
[17] = second compound 10 µM, first compound 0.0316 µM
[18] = second compound 10 µM, first compound 0.1 µM
[19] = second compound 10 µM, first compound 0.316 µM
[20] = second compound 10 µM, first compound 1 µM

## C#Cc1c(F)ccc2cc(O)cc(-c3ncc4c(N5CC6CCC(C5)N6)nc(OCC56CCCN5CC(F)C6)nc4c3F)c12 (stereo not given) + Cc1c(S(C)(=O)=O)c(-c2cc(F)cc(N3CCN(c4ccc(NS(=O)(=O)c5ccc(NC(CCN6CCC(C(=O)OCCCP(=O)(O)O)CC6)CSc6ccccc6)c(S(=O)(=O)C(F)(F)F)c5)cc4)CC3)c2)c(-c2ccc(Cl)cc2)n1C(C)C
Second compound 0.1 µM
  IC50: 8.63 µM
Second compound 0.316 µM
  IC50: 6.03 µM
Second compound 1 µM
  IC50: 5.88 µM
Second compound 3.16 µM
  IC50: 5.43 µM
Second compound 10 µM
  IC50: 5.95 µM
[1]
  viability, T/C: 103%
[2]
  viability, T/C: 99.5%
[3]
  viability, T/C: 99.6%
[4]
  viability, T/C: 102%
Second compound 0.1 µM, first compound 3.16 µM
  viability, T/C: 87.8%
Second compound 0.1 µM, first compound 10 µM
  viability, T/C: 44%
[5]
  viability, T/C: 108%
[6]
  viability, T/C: 117%
[7]
  viability, T/C: 110%
[8]
  viability, T/C: 105%
Second compound 0.316 µM, first compound 3.16 µM
  viability, T/C: 82%
Second compound 0.316 µM, first compound 10 µM
  viability, T/C: 25%
[9]
  viability, T/C: 102%
[10]
  viability, T/C: 105%
[11]
  viability, T/C: 109%
[12]
  viability, T/C: 105%
Second compound 1 µM, first compound 3.16 µM
  viability, T/C: 96.8%
Second compound 1 µM, first compound 10 µM
  viability, T/C: 9.87%
[13]
  viability, T/C: 108%
[14]
  viability, T/C: 115%
[15]
  viability, T/C: 94.3%
[16]
  viability, T/C: 101%
Second compound 3.16 µM, first compound 3.16 µM
  viability, T/C: 83.7%
Second compound 3.16 µM, first compound 10 µM
  viability, T/C: 13.2%
[17]
  viability, T/C: 105%
[18]
  viability, T/C: 95.2%
[19]
  viability, T/C: 92.6%
[20]
  viability, T/C: 97.8%
Second compound 10 µM, first compound 3.16 µM
  viability, T/C: 74.9%
Second compound 10 µM, first compound 10 µM
  viability, T/C: 29.4%

## CNC(C)C(=O)NC1CN(S(=O)(=O)c2cccc(S(=O)(=O)N3CCC4CCC(C(=O)NC(c5ccccc5)c5ccccc5)N4C(=O)C(NC(=O)C(C)NC)C3)c2)CCC2CCC(C(=O)NC(c3ccccc3)c3ccccc3)N2C1=O (stereo not given) + Cc1c(S(C)(=O)=O)c(-c2cc(F)cc(N3CCN(c4ccc(NS(=O)(=O)c5ccc(NC(CCN6CCC(C(=O)OCCCP(=O)(O)O)CC6)CSc6ccccc6)c(S(=O)(=O)C(F)(F)F)c5)cc4)CC3)c2)c(-c2ccc(Cl)cc2)n1C(C)C
Second compound 0.1 µM
  IC50: > 1 µM
Second compound 0.316 µM
  IC50: > 1 µM
Second compound 1 µM
  IC50: > 1 µM
Second compound 3.16 µM
  IC50: > 1 µM
Second compound 10 µM
  IC50: > 1 µM
Second compound 0.1 µM, first compound 0.00316 µM
  viability, T/C: 114%
Second compound 0.1 µM, first compound 0.01 µM
  viability, T/C: 100%
[1]
  viability, T/C: 103%
[2]
  viability, T/C: 90.6%
[3]
  viability, T/C: 96.9%
[4]
  viability, T/C: 88.1%
Second compound 0.316 µM, first compound 0.00316 µM
  viability, T/C: 116%
Second compound 0.316 µM, first compound 0.01 µM
  viability, T/C: 90.5%
[5]
  viability, T/C: 90.7%
[6]
  viability, T/C: 84.7%
[7]
  viability, T/C: 103%
[8]
  viability, T/C: 86%
Second compound 1 µM, first compound 0.00316 µM
  viability, T/C: 98.7%
Second compound 1 µM, first compound 0.01 µM
  viability, T/C: 97%
[9]
  viability, T/C: 90.4%
[10]
  viability, T/C: 82%
[11]
  viability, T/C: 89.3%
[12]
  viability, T/C: 90.9%
Second compound 3.16 µM, first compound 0.00316 µM
  viability, T/C: 93.2%
Second compound 3.16 µM, first compound 0.01 µM
  viability, T/C: 94.2%
[13]
  viability, T/C: 81%
[14]
  viability, T/C: 81.5%
[15]
  viability, T/C: 71.4%
[16]
  viability, T/C: 83.3%
Second compound 10 µM, first compound 0.00316 µM
  viability, T/C: 93.2%
Second compound 10 µM, first compound 0.01 µM
  viability, T/C: 94.7%
[17]
  viability, T/C: 80.7%
[18]
  viability, T/C: 79.5%
[19]
  viability, T/C: 77.4%
[20]
  viability, T/C: 76.3%

## Cc1nc(N2CCC3(CC2)COC(C)C3N)c(CO)nc1Sc1ccnc(N)c1Cl (stereo not given) + Cc1c(S(C)(=O)=O)c(-c2cc(F)cc(N3CCN(c4ccc(NS(=O)(=O)c5ccc(NC(CCN6CCC(C(=O)OCCCP(=O)(O)O)CC6)CSc6ccccc6)c(S(=O)(=O)C(F)(F)F)c5)cc4)CC3)c2)c(-c2ccc(Cl)cc2)n1C(C)C
Second compound 0.1 µM
  IC50: > 3 µM
Second compound 0.316 µM
  IC50: > 3 µM
Second compound 1 µM
  IC50: > 3 µM
Second compound 3.16 µM
  IC50: > 3 µM
Second compound 10 µM
  IC50: > 3 µM
Second compound 0.1 µM, first compound 0.00949 µM
  viability, T/C: 79.8%
Second compound 0.1 µM, first compound 0.03 µM
  viability, T/C: 83.8%
Second compound 0.1 µM, first compound 0.0949 µM
  viability, T/C: 88.9%
Second compound 0.1 µM, first compound 0.3 µM
  viability, T/C: 78.8%
Second compound 0.1 µM, first compound 0.949 µM
  viability, T/C: 84.9%
Second compound 0.1 µM, first compound 3 µM
  viability, T/C: 60.2%
Second compound 0.316 µM, first compound 0.00949 µM
  viability, T/C: 59.4%
Second compound 0.316 µM, first compound 0.03 µM
  viability, T/C: 71.4%
Second compound 0.316 µM, first compound 0.0949 µM
  viability, T/C: 60.7%
Second compound 0.316 µM, first compound 0.3 µM
  viability, T/C: 79.1%
Second compound 0.316 µM, first compound 0.949 µM
  viability, T/C: 65.3%
Second compound 0.316 µM, first compound 3 µM
  viability, T/C: 61.7%
Second compound 1 µM, first compound 0.00949 µM
  viability, T/C: 68.1%
Second compound 1 µM, first compound 0.03 µM
  viability, T/C: 66.1%
Second compound 1 µM, first compound 0.0949 µM
  viability, T/C: 78.5%
Second compound 1 µM, first compound 0.3 µM
  viability, T/C: 51.7%
Second compound 1 µM, first compound 0.949 µM
  viability, T/C: 67.5%
Second compound 1 µM, first compound 3 µM
  viability, T/C: 59.2%
Second compound 3.16 µM, first compound 0.00949 µM
  viability, T/C: 64.1%
Second compound 3.16 µM, first compound 0.03 µM
  viability, T/C: 53.9%
Second compound 3.16 µM, first compound 0.0949 µM
  viability, T/C: 65%
Second compound 3.16 µM, first compound 0.3 µM
  viability, T/C: 58.1%
Second compound 3.16 µM, first compound 0.949 µM
  viability, T/C: 63.3%
Second compound 3.16 µM, first compound 3 µM
  viability, T/C: 62.2%
Second compound 10 µM, first compound 0.00949 µM
  viability, T/C: 50.7%
Second compound 10 µM, first compound 0.03 µM
  viability, T/C: 64.1%
Second compound 10 µM, first compound 0.0949 µM
  viability, T/C: 62.7%
Second compound 10 µM, first compound 0.3 µM
  viability, T/C: 48.3%
Second compound 10 µM, first compound 0.949 µM
  viability, T/C: 51.3%
Second compound 10 µM, first compound 3 µM
  viability, T/C: 54.6%
